Reference: patent publication US10604512B2, “3-(1H-indol-2-yl)-1H-indazoles and therapeutic uses thereof” (Samumed, LLC, priority 2015, dated 2020)

Tests used:
Format in all cases: cell-based
[1] = system: SW480 colon cancer cells; assay: Cell viability assay (CellTiter-Blue) in SW480 colon cancer cells; conditions: Homo sapiens, 96 h, four days; for inhibition at 10 µM: given where EC50 >10 μM, read-out: percent inhibition at 10 μM; for EC50: CellTiter-Blue
How it was run: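 Resazurin reduction (Ex 560/Em 590 nm, ~3 h reagent incubation) served as the viability read-out after SW480 cells were treated for four days at 37 °C. Doses ran from 10 μM down to 0.0045 μM in eight 1:3 steps. Curves fitted non-linearly for EC50, else % inhibition at 10 μM reported.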

[2] = system: primary human mesenchymal stem cells (hMSCs); assay: Induction of chondrogenesis in primary human mesenchymal stem cells (nodule imaging, Rhodamine B / Nile Red); conditions: for EC50: concentration required to induce 50% levels of chondrogenesis vs TGF-β3 positive control, read-out: Conc (nM) of 50% TGF-β3 activity; for Emax: maximum chondrogenesis activity relative to TGF-β3 (10 ng/mL) positive control, read-out: Max. Activity as % TGF-β3 activity
Description: Representative compounds were screened using primary human mesenchymal stem cells (hMSCs) to determine their ability to induce chondrogenesis (process by which cartilage is developed).
Primary human mesenchymal stem cells (hMSCs) were purchased from Lonza (Walkersville, Md.) and expanded in Mesenchymal Stem Cell Growth Media (Lonza). Cells between passage 3 and 6 were used for the experiments.
Each compound was dissolved in DMSO as a 10 mM stock and used to prepare compound source plates. For the 96 well assay, serial dilution (1:3, 6-point dose-response curves from 2700 nM to 10 nM) and compound transfer was performed using the ECHO 550 (Labcyte, Sunnyvale, Calif.) into 96-well clear bottom assay plates (Greiner Bio-One) with appropriate DMSO backfill for a final DMSO concentration of 0.03%. hMSCs were plated at 20,000 cells/well in 250 μL/well Incomplete Chondrogenic Induction Medium (Lonza; DMEM, dexamethasone, ascorbate, insulin-transferrin-selenium [ITS supplement], gentamycin-amphotericin [GA-1000], sodium pyruvate, proline and L-glutamine). TGF-β3 (10 ng/mL) was used as a positive control for differentiation while negative control wells were treated with 75 nL DMSO for normalization and calculating EC50 values. For the 384 well assay, serial dilution (1:3, 8-point dose-response curves from 5000 nM to 2.2 nM) and compound transfer was performed using the ECHO 550 (Labcyte, Sunnyvale, Calif.) into 384-well clear bottom assay plates (Greiner Bio-One) with appropriate DMSO backfill for a final DMSO concentration of 0.03%. hMSCs were plated at 8,000 cells/well in 80 μL/well Incomplete Chondrogenic Induction Medium (Lonza; DMEM, dexamethasone, ascorbate, insulin-transferrin-selenium [ITS supplement], gentamycin-amphotericin [GA-1000], sodium pyruvate, proline and L-glutamine). TGF-β3 (10 ng/mL) was used as a positive control for differentiation while negative control wells were treated with 25 nL DMSO for normalization and calculating EC50 values. Cells were incubated at 37° C. and 5% CO2 for 6 days. To image chondrogenic nodules, the cells were fixed using 4% formaldehyde (Electron Microscopy Sciences), and stained with 2 μg/mL Rhodamine B (Sigma-Aldrich) and 20 μM Nile Red (Sigma-Aldrich) [Johnson K., et. al, A Stem CellBased Approach to Cartilage Repair, Science, (2012), 336(6082), 717-721]. The nodules imaged (25 images per well for 96 well plates and 9 images per well for 384 well plates at 10× magnification) by excitation at 531 nm and emission at 625 nm and quantified using the CellInsight CX5 (Thermo Scientific). Area of nodules in each well was normalized to the average of 3 DMSO treated wells on the same plate using Excel (Microsoft Inc.). The normalized averages (fold change over DMSO) of 2 or 3 replicate wells for each compound concentration were calculated. Due to solubility limitations of some of the compounds, curve fitting was incomplete leading to inaccurate EC50 determinations.
Using TGF-β3 as a positive control, the concentration of representative compounds required to induce 50% levels of chondrogenesis is reported. In addition, the maximum activity of each compound and the respective dose that each compound reached maximum chondrogenesis activity is reported.

[3] = system: IL-6; assay: Inhibition of IL-6 in LPS-stimulated THP-1 human monocyte cells (HTRF); conditions: for EC50: IL-6 inhibition, LPS-stimulated THP-1 cells, HTRF; for inhibition at 10 µM: THP-1, printed beside >10 μM EC50, top concentration 10 μM, meaning not given, read-out: percentage in parentheses after EC50 >10
How it was run: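 THP-1 cells serum-reduced (1% FBS, 24 h), then 5000 cells/well preincubated 2 h with compound (10-point 1:3 series from 10 μM, 0.1% DMSO) before 500 ng/mL LPS for 22 h at 37 °C. Secreted IL-6 quantified by HTRF 665/620 ratio; DMSO-normalised duplicates fitted to four-parameter EC50; above 10 μM, % inhibition at 10 μM given.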

SMILES | inhibition at 10 µM [1] [%] | EC50 [1] [nM] | EC50 [2] [nM] | Emax [2] [%] | EC50 [3] [nM] | inhibition at 10 µM [3] [%]
Fc1ccc(-c2cccc3[nH]c(-c4n[nH]c5ccc(-c6cncc(CN7CCCC7)c6)cc45)cc23)cc1 [Compound 42, 3-(4-(4-Fluorophenyl)-1H-indol-2-yl)-5-(5-(pyrrolidin-1-ylmethyl)pyridin-3-yl)-1H-indazole] | 42.4 | > 10000 | 30 | 197 | > 10000 | 47.8
Nc1cncc(-c2ccc3[nH]nc(-c4cc5c(-c6ccccc6F)cccc5[nH]4)c3c2)c1 [Compound 59, 5-(3-(4-(2-Fluorophenyl)-1H-indol-2-yl)-1H-indazol-5-yl)pyridin-3-amine] | – | 1290 | 10 | 197 | 3460 | –
CCC(=O)Nc1cncc(-c2ccc3[nH]nc(-c4cc5c(-c6cccnc6)cccc5[nH]4)c3c2)c1 [Compound 85, N-(5-(3-(4-(Pyridin-3-yl)-1H-indol-2-yl)-1H-indazol-5-yl)pyridin-3-yl) propionamide] | – | 479 | 10 | 197 | 204 | –
c1cncc(-c2ccc3[nH]nc(-c4cc5c(-c6cccnc6)cccc5[nH]4)c3c2)c1 [Compound 88, 5-(Pyridin-3-yl)-3-(4-(pyridin-3-yl)-1H-indol-2-yl)-1H-indazole] | 21.9 | > 10000 | 10 | 183 | 23 | –
CC(C)C(=O)Nc1cncc(-c2ccc3[nH]nc(-c4cc5c(-c6cccnc6)cccc5[nH]4)c3c2)c1 [Compound 93, N-(5-(3-(4-(Pyridin-3-yl)-1H-indol-2-yl)-1H-indazol-5-yl)pyridin-3-yl) isobutyramide] | – | 2300 | 30 | 199 | 34 | –
c1cncc(-c2cccc3[nH]c(-c4n[nH]c5ccc(-c6cncc(CN7CCCCC7)c6)cc45)cc23)c1 [Compound 99, 5-(5-(Piperidin-1-ylmethyl)pyridin-3-yl)-3-(4-(pyridin-3-yl)-1H-indol-2-yl)-1H-indazole] | 6.5 | > 10000 | 10 | 212 | > 10000 | 50.5
c1cncc(-c2cccc3[nH]c(-c4n[nH]c5ccc(-c6cncnc6)cc45)cc23)c1 [Compound 111, 3-(4-(Pyridin-3-yl)-1H-indol-2-yl)-5-(pyrimidin-5-yl)-1H-indazole] | – | 9660 | 10 | 202 | 3060 | –
Cc1ccncc1-c1ccc2[nH]nc(-c3cc4c(-c5ccncc5)cccc4[nH]3)c2c1 [Compound 117, 5-(4-Methylpyridin-3-yl)-3-(4-(pyridin-4-yl)-1H-indol-2-yl)-1H-indazole] | 20.9 | > 10000 | 10 | 190 | > 10000 | 38.6
CCNCc1cncc(-c2ccc3[nH]nc(-c4cc5c(-c6ccncc6)cccc5[nH]4)c3c2)c1 [Compound 118, N-((5-(3-(4-(Pyridin-4-yl)-1H-indol-2-yl)-1H-indazol-5-yl)pyridin-3-yl)methyl)ethanamine] | – | 528 | 30 | 199 | 137 | –
CN(C)Cc1cncc(-c2ccc3[nH]nc(-c4cc5c(-c6ccncc6)cccc5[nH]4)c3c2)c1 [Compound 125, N,N-dimethyl-1-(5-(3-(4-(Pyridin-4-yl)-1H-indol-2-yl)-1H-indazol-5-yl)pyridin-3-yl)methanamine] | – | 412 | 30 | 191 | 150 | –
O=C(Nc1cncc(-c2ccc3[nH]nc(-c4cc5c(-c6ccncc6)cccc5[nH]4)c3c2)c1)C1CC1 [Compound 132, N-(5-(3-(4-(Pyridin-4-yl)-1H-indol-2-yl)-1H-indazol-5-yl)pyridin-3-yl) cyclopropanecarboxamide] | – | 462 | 10 | 219 | 109 | –
Nc1cncc(-c2ccc3[nH]nc(-c4cc5c(-c6ccccn6)cccc5[nH]4)c3c2)c1 [Compound 143, 5-(3-(4-(Pyridin-2-yl)-1H-indol-2-yl)-1H-indazol-5-yl)pyridin-3-amine] | – | 748 | 10 | 224 | 290 | –
c1ccc(-c2cccc3[nH]c(-c4n[nH]c5ccc(-c6cncc(CN7CCCC7)c6)cc45)cc23)nc1 [Compound 154, 3-(4-(Pyridin-2-yl)-1H-indol-2-yl)-5-(5-(pyrrolidin-1-ylmethyl)pyridin-3-yl)-1H-indazole] | – | 2800 | 10 | 180 | 750 | –
c1ccc(-c2cccc3[nH]c(-c4n[nH]c5ccc(-c6cncnc6)cc45)cc23)nc1 [Compound 167, 3-(4-(Pyridin-2-yl)-1H-indol-2-yl)-5-(pyrimidin-5-yl)-1H-indazole] | 10.9 | > 10000 | 10 | 203 | 979 | –
CCC(=O)Nc1cncc(-c2ccc3[nH]nc(-c4cc5c(N6CCCCC6)cccc5[nH]4)c3c2)c1 [Compound 169, N-(5-(3-(4-(Piperidin-1-yl)-1H-indol-2-yl)-1H-indazol-5-yl)pyridin-3-yl) propionamide] | 10.4 | > 10000 | 30 | 171 | > 10000 | 41.7
CN(C)Cc1cncc(-c2ccc3[nH]nc(-c4cc5c(N6CCCCC6)cccc5[nH]4)c3c2)c1 [Compound 181, N,N-Dimethyl-1-(5-(3-(4-(piperidin-1-yl)-1H-indol-2-yl)-1H-indazol-5-yl)pyridin-3-yl)methanamine] | – | 4160 | 10 | 205 | > 10000 | 40.7
O=C(Nc1cncc(-c2ccc3[nH]nc(-c4cc5c(N6CCCCC6)cccc5[nH]4)c3c2)c1)C1CC1 [Compound 188, N-(5-(3-(4-(Piperidin-1-yl)-1H-indol-2-yl)-1H-indazol-5-yl)pyridin-3-yl) cyclopropanecarboxamide] | 29.5 | > 10000 | 10 | 183 | 5370 | –
FC1(F)CCN(Cc2cncc(-c3ccc4[nH]nc(-c5cc6c(N7CCCCC7)cccc6[nH]5)c4c3)c2)C1 [Compound 194, 5-(5-((3,3-Difluoropyrrolidin-1-yl)methyl)pyridin-3-yl)-3-(4-(piperidin-1-yl)-1H-indol-2-yl)-1H-indazole] | – | 4430 | 30 | 160 | > 10000 | 29.2
CN1CCN(c2cccc3[nH]c(-c4n[nH]c5ccc(-c6cncc(N)c6)cc45)cc23)CC1 [Compound 227, 5-(3-(4-(4-Methylpiperazin-1-yl)-1H-indol-2-yl)-1H-indazol-5-yl)pyridin-3-amine] | – | 2960 | 100 | 166 | 1810 | –
